Experimental data as given in PubChem BioAssay AID1259407 (Chemical Carcinogenesis Research Information System (CCRIS), 2018).
The source made the active and inactive calls. How the calls were made is not given here.

Tested on: CCRIS mutagenicity, Ames/micronucleus/aberration tests
Experiment: CCRIS mutagenicity studies
[1] = Test System: AMES SALMONELLA TYPHIMURIUM, Strain/Indicator: TA100, Metabolic Activation: NONE, Method: STANDARD PLATE

SMILES: NC1=CC(=O)C(=O)c2ccccc21
- mutagenic call (Test System: AMES SALMONELLA TYPHIMURIUM, Strain/Indicator: TA97, Metabolic Activation: NONE, Method: PREINCUBATION): active; positive
- mutagenic call (Test System: AMES SALMONELLA TYPHIMURIUM, Strain/Indicator: TA97, Metabolic Activation: RAT, LIVER, S-9, PHENOBARBITAL AND 5,6-BENZOFLAVONE, Method: PREINCUBATION): active; positive
- mutagenic call (Test System: AMES SALMONELLA TYPHIMURIUM, Strain/Indicator: TA98, Metabolic Activation: NONE, Method: PREINCUBATION): inactive; negative
- mutagenic call (Test System: AMES SALMONELLA TYPHIMURIUM, Strain/Indicator: TA98, Metabolic Activation: RAT, LIVER, S-9, PHENOBARBITAL AND 5,6-BENZOFLAVONE, Method: PREINCUBATION): active; positive
- mutagenic call (Test System: AMES SALMONELLA TYPHIMURIUM, Strain/Indicator: TA100, Metabolic Activation: NONE, Method: PREINCUBATION): active; positive
- mutagenic call (Test System: AMES SALMONELLA TYPHIMURIUM, Strain/Indicator: TA100, Metabolic Activation: RAT, LIVER, S-9, PHENOBARBITAL AND 5,6-BENZOFLAVONE, Method: PREINCUBATION): active; positive
- mutagenic call (Test System: AMES SALMONELLA TYPHIMURIUM, Strain/Indicator: TA102, Metabolic Activation: NONE, Method: PREINCUBATION): inactive; negative
- mutagenic call (Test System: AMES SALMONELLA TYPHIMURIUM, Strain/Indicator: TA102, Metabolic Activation: RAT, LIVER, S-9, PHENOBARBITAL AND 5,6-BENZOFLAVONE, Method: PREINCUBATION): inactive; negative
- mutagenic call (Test System: AMES SALMONELLA TYPHIMURIUM, Strain/Indicator: TA104, Metabolic Activation: NONE, Method: PREINCUBATION): active; positive
- mutagenic call (Test System: AMES SALMONELLA TYPHIMURIUM, Strain/Indicator: TA104, Metabolic Activation: RAT, LIVER, S-9, PHENOBARBITAL AND 5,6-BENZOFLAVONE, Method: PREINCUBATION): active; positive
- mutagenic call (Test System: AMES SALMONELLA TYPHIMURIUM, Strain/Indicator: TA1535, Metabolic Activation: NONE, Method: PREINCUBATION): inactive; negative
- mutagenic call (Test System: AMES SALMONELLA TYPHIMURIUM, Strain/Indicator: TA1535, Metabolic Activation: RAT, LIVER, S-9, PHENOBARBITAL AND 5,6-BENZOFLAVONE, Method: PREINCUBATION): inactive; negative
- mutagenic call (Test System: AMES SALMONELLA TYPHIMURIUM, Strain/Indicator: TA1537, Metabolic Activation: NONE, Method: PREINCUBATION): inactive; negative
- mutagenic call (Test System: AMES SALMONELLA TYPHIMURIUM, Strain/Indicator: TA1537, Metabolic Activation: RAT, LIVER, S-9, PHENOBARBITAL AND 5,6-BENZOFLAVONE, Method: PREINCUBATION): active; positive
- mutagenic call (Test System: AMES SALMONELLA TYPHIMURIUM, Strain/Indicator: TA1538, Metabolic Activation: NONE, Method: PREINCUBATION): inactive; negative
- mutagenic call (Test System: AMES SALMONELLA TYPHIMURIUM, Strain/Indicator: TA1538, Metabolic Activation: RAT, LIVER, S-9, PHENOBARBITAL AND 5,6-BENZOFLAVONE, Method: PREINCUBATION): inactive; negative
- mutagenic call (Test System: AMES SALMONELLA TYPHIMURIUM, Strain/Indicator: TA2637, Metabolic Activation: NONE, Method: PREINCUBATION): active; positive
- mutagenic call (Test System: AMES SALMONELLA TYPHIMURIUM, Strain/Indicator: TA2637, Metabolic Activation: RAT, LIVER, S-9, PHENOBARBITAL AND 5,6-BENZOFLAVONE, Method: PREINCUBATION): active; positive

SMILES: C=CCBr
- mutagenic call (End Point: IN VITRO CHROMOSOMAL ABERRATIONS, Test System: CHL CELLS, Metabolic Activation: NONE): active; positive (structural changes)
- mutagenic call (End Point: IN VITRO CHROMOSOMAL ABERRATIONS, Test System: CHL CELLS, Metabolic Activation: RAT, LIVER, S-9, SODIUM PHENOBARBITAL AND 5,6-BENZOFLAVONE): inactive; negative; authors report equivocal results for structural changes at 0.06 mg/ml
- mutagenic call (End Point: In vivo micronucleus, Species: Mouse, Strain/Sex: C57BL/6/Male, Route: Oral): inactive; negative
- mutagenic call (End Point: In vivo micronucleus, Test System: Peripheral blood normochromatic erythrocytes, Species: Mouse, Strain/Sex: C57BL/6/Female, Route: Oral): inactive; negative
- mutagenic call (End Point: In vivo micronucleus, Test System: Peripheral blood normochromatic erythrocytes, Species: Mouse, Strain/Sex: FVB/N/Female, Route: Oral): inactive; negative
- mutagenic call (End Point: In vivo micronucleus, Test System: Peripheral blood normochromatic erythrocytes, Species: Mouse, Strain/Sex: FVB/N/Male, Route: Oral): inactive; negative
- mutagenic call (End Point: In vivo micronucleus, Test System: Peripheral blood normochromatic erythrocytes, Species: Mouse, Strain/Sex: P53 Haploinsufficient/Female, Route: Oral): inactive; negative
- mutagenic call (End Point: In vivo micronucleus, Test System: Peripheral blood normochromatic erythrocytes, Species: Mouse, Strain/Sex: P53 Haploinsufficient/Male, Route: Oral): inactive; negative
- mutagenic call (End Point: In vivo micronucleus, Test System: Peripheral blood normochromatic erythrocytes, Species: Mouse, Strain/Sex: Tg.AC Hemizygous/Female, Route: Oral): inactive; negative
- mutagenic call (End Point: In vivo micronucleus, Test System: Peripheral blood normochromatic erythrocytes, Species: Mouse, Strain/Sex: Tg.AC Hemizygous/Male, Route: Oral): inactive; negative
- mutagenic call (Test System: Ames Salmonella typhimurium, Strain/Indicator: TA98, Metabolic Activation: Hamster, Liver, S-9, Aroclor 1254 (30%), Method: Standard plate): inactive; negative
- mutagenic call (Test System: Ames Salmonella typhimurium, Strain/Indicator: TA98, Metabolic Activation: None, Method: Standard plate): inactive; negative
- mutagenic call (Test System: Ames Salmonella typhimurium, Strain/Indicator: TA98, Metabolic Activation: Rat, Liver, S-9, Aroclor 1254 (30%), Method: Standard plate): inactive; negative
- mutagenic call (Test System: Ames Salmonella typhimurium, Strain/Indicator: TA100, Metabolic Activation: Hamster, Liver, S-9, Aroclor 1254 (30%), Method: Standard plate): active; positive (weak response)
- mutagenic call (Test System: Ames Salmonella typhimurium, Strain/Indicator: TA100, Metabolic Activation: None, Method: Standard plate): active; positive
- mutagenic call (Test System: Ames Salmonella typhimurium, Strain/Indicator: TA100, Metabolic Activation: Rat, Liver, S-9, Aroclor 1254 (30%), Method: Standard plate): active; positive

SMILES: CCOCOCC
- mutagenic call (Test System: AMES SALMONELLA TYPHIMURIUM, Strain/Indicator: TA98, Metabolic Activation: HAMSTER, LIVER, S-9, AROCLOR 1254, Method: STANDARD PLATE): inactive; negative
- mutagenic call (Test System: AMES SALMONELLA TYPHIMURIUM, Strain/Indicator: TA98, Metabolic Activation: NONE, Method: STANDARD PLATE): inactive; negative
- mutagenic call (Test System: AMES SALMONELLA TYPHIMURIUM, Strain/Indicator: TA98, Metabolic Activation: RAT, LIVER, S-9, AROCLOR 1254, Method: STANDARD PLATE): inactive; negative
- mutagenic call (Test System: AMES SALMONELLA TYPHIMURIUM, Strain/Indicator: TA100, Metabolic Activation: HAMSTER, LIVER, S-9, AROCLOR 1254, Method: STANDARD PLATE): inactive; negative
- mutagenic call [1]: inactive; negative
- mutagenic call (Test System: AMES SALMONELLA TYPHIMURIUM, Strain/Indicator: TA100, Metabolic Activation: RAT, LIVER, S-9, AROCLOR 1254, Method: STANDARD PLATE): inactive; negative
- mutagenic call (Test System: AMES SALMONELLA TYPHIMURIUM, Strain/Indicator: TA1535, Metabolic Activation: HAMSTER, LIVER, S-9, AROCLOR 1254, Method: STANDARD PLATE): inactive; negative
- mutagenic call (Test System: AMES SALMONELLA TYPHIMURIUM, Strain/Indicator: TA1535, Metabolic Activation: NONE, Method: STANDARD PLATE): inactive; negative
- mutagenic call (Test System: AMES SALMONELLA TYPHIMURIUM, Strain/Indicator: TA1535, Metabolic Activation: RAT, LIVER, S-9, AROCLOR 1254, Method: STANDARD PLATE): inactive; negative
- mutagenic call (Test System: AMES SALMONELLA TYPHIMURIUM, Strain/Indicator: TA1537, Metabolic Activation: HAMSTER, LIVER, S-9, AROCLOR 1254, Method: STANDARD PLATE): inactive; negative
- mutagenic call (Test System: AMES SALMONELLA TYPHIMURIUM, Strain/Indicator: TA1537, Metabolic Activation: NONE, Method: STANDARD PLATE): inactive; negative
- mutagenic call (Test System: AMES SALMONELLA TYPHIMURIUM, Strain/Indicator: TA1537, Metabolic Activation: RAT, LIVER, S-9, AROCLOR 1254, Method: STANDARD PLATE): inactive; negative
- mutagenic call (Test System: AMES SALMONELLA TYPHIMURIUM, Strain/Indicator: TA1538, Metabolic Activation: HAMSTER, LIVER, S-9, AROCLOR 1254, Method: STANDARD PLATE): inactive; negative
- mutagenic call (Test System: AMES SALMONELLA TYPHIMURIUM, Strain/Indicator: TA1538, Metabolic Activation: NONE, Method: STANDARD PLATE): inactive; negative
- mutagenic call (Test System: AMES SALMONELLA TYPHIMURIUM, Strain/Indicator: TA1538, Metabolic Activation: RAT, LIVER, S-9, AROCLOR 1254, Method: STANDARD PLATE): inactive; negative
- mutagenic call (Test System: MOUSE LYMPHOMA, Strain/Indicator: L5178Y (TK+/TK-), Metabolic Activation: NONE, Method: SUSPENSION/PLATE): inactive; negative. reevaluation of results: negative
- mutagenic call (Test System: MOUSE LYMPHOMA, Strain/Indicator: L5178Y (TK+/TK-), Metabolic Activation: RAT, LIVER, S-9, AROCLOR 1254, Method: SUSPENSION/PLATE): active; positive. reevaluation of results: positive

SMILES: O=C1NC(=O)C(CBr)=C1Cl
- mutagenic call [1]: active; positive
